Consider seven compounds from patent publication US9351974B2, “Substituted pteridinones for the treatment of cancer” (OSI Pharmaceuticals, LLC, priority 2011, dated 2016).

pIC50: −log10 of the molar value.

The assay concerns the target T1, His-tagged full-length RSK2 (RPS6KA3) (Homo sapiens, UniProt P51812).
T1 construct: His-tagged full-length RSK2 (RPS6KA3, Invitrogen PV3323); His; purchased Invitrogen PV3323
Put plainly: RSK2 Omnia Assay for compound IC50 determination. Type of assay: biochemical. Conditions: ATP 15 μM, n=2, read-out: Mean RSK2 Biochem IC50. Summed up:
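Initial-rate slopes from continuous kinetic reads were fitted to a four-parameter equation for IC50 (n=2). Ki was then derived by Cheng-Prusoff assuming ATP-competitive inhibition. Reactions contained 15 μM ATP (Km 16.3 μM), 5 μM Omnia ST Peptide 6, and […] in 50 mM HEPES pH 7.5, 10 mM MgCl2, 1 mM DTT, 1% DMSO. Compounds spanned 11 threefold steps, […] final.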

T1 sequence (P51812 whole entry): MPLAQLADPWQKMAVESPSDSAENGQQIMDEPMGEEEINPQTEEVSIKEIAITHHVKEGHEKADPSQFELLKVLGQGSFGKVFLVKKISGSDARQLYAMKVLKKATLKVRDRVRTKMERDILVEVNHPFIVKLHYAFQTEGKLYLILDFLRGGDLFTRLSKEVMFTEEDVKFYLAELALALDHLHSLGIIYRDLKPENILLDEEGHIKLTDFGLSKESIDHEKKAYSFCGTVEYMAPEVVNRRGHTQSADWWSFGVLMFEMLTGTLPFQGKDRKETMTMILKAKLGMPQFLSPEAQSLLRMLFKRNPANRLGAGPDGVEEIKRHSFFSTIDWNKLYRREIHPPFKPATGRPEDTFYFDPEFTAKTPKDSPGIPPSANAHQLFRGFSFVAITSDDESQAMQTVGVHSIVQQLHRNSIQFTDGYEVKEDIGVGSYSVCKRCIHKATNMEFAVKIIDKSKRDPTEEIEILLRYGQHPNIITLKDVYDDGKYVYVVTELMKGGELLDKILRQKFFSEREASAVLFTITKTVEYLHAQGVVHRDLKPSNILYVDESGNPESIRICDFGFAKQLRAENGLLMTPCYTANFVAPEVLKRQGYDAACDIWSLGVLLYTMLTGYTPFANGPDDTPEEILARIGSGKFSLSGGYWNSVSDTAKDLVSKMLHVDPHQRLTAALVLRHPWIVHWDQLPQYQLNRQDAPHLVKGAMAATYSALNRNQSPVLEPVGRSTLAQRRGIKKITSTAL

`CC(C)Oc1ccc(N2C(=O)[C@@H](C)N(C3CCC(F)(F)CC3)c3nc(Nc4ccc5[nH]c(=O)oc5c4)ncc32)cc1C#N` [compound 285, 5-[(7R)-8-(4,4-difluorocyclohexyl)-7-methyl-6-oxo-2-[(2-oxo-2,3-dihydro-1,3-benzoxazol-6-yl)amino]-7,8-dihydropteridin-5(6H)-yl]-2-(propan-2-yloxy)benzonitrile]: the pIC50 was at least 7.00.

For the compound `COc1ccc(N2C(=O)[C@@H](C)N(C3CCC(F)(F)CC3)c3nc(Nc4ccc5[nH]c(=O)oc5c4)ncc32)cc1C#N` [compound 283, 5-[(7R)-8-(4,4-difluorocyclohexyl)-7-methyl-6-oxo-2-[(2-oxo-2,3-dihydro-1,3-benzoxazol-6-yl)amino]-7,8-dihydropteridin-5(6H)-yl]-2-methoxybenzonitrile], the negative-log IC50 (pIC50) is 6.00 to 7.00.

With `C[C@@H]1C(=O)N(c2cccc(C#N)c2)c2cnc(Nc3ccc4[nH]ncc4c3)nc2N1[C@H]1CC[C@@H](O)CC1` [compound 309, 3-[(7R)-8-(cis-4-hydroxycyclohexyl)-2-(1H-indazol-5-ylamino)-7-methyl-6-oxo-7,8-dihydropteridin-5(6H)-yl]benzonitrile], the negative logarithm of the IC50 (pIC50) is below 6.00.

Take `C[C@@H]1C(=O)N(c2cccc(C#N)c2)c2cnc(Nc3ccccc3)nc2N1C1CCCCC1` [compound 156, 3-[(7R)-8-cyclohexyl-7-methyl-6-oxo-2-(phenylamino)-7,8-dihydropteridin-5(6H)-yl]benzonitrile]: the pIC50 is 6.00 to 7.00.

Consider `COc1ccc(N2C(=O)[C@@H](C)N([C@H]3CC[C@@H](C)CC3)c3nc(Nc4cc(F)c5[nH]ncc5c4)ncc32)cc1OC` [compound 238, (7R)-5-(3,4-dimethoxyphenyl)-2-[(7-fluoro-1H-indazol-5-yl)amino]-7-methyl-8-(cis-4-methylcyclohexyl)-7,8-dihydropteridin-6(5H)-one], for which the pIC50 is at least 7.00.

With `CC1C(=O)N(c2ccccc2)c2cnc(Nc3ccc4c(c3)CC(=O)N4)nc2N1C1CCCCC1` (stereo not shown) [Example 60, 8-cyclohexyl-7-methyl-2-[(2-oxo-2,3-dihydro-1H-indol-5-yl)amino]-5-phenyl-7,8-dihydropteridin-6(5H)-one], the pIC50 was at least 7.00.

As to `C[C@@H]1C(=O)N(c2cccc(C#N)c2)c2cnc(Nc3cc(F)c(O)c(F)c3)nc2N1C1CCC(F)(F)CC1` [compound 276, 3-[(7R)-8-(4,4-difluorocyclohexyl)-2-[(3,5-difluoro-4-hydroxyphenyl)amino]-7-methyl-6-oxo-7,8-dihydropteridin-5(6H)-yl]benzonitrile], the pIC50 was at least 7.00.
